{"source": "PubChem BioAssay (NCI)", "test_in_all_cases": "growth of human tumour cells (NCI), 48 h", "key": {"PC-3 prostate": {"system": "PC-3 prostate"}, "RXF 393 renal": {"system": "RXF 393 renal"}, "UO-31 renal": {"system": "UO-31 renal"}, "A549 NSCLC": {"system": "A549 NSCLC"}, "BT-549 breast": {"system": "BT-549 breast"}, "CCRF-CEM leukemia": {"system": "CCRF-CEM leukemia"}, "K-562 leukemia": {"system": "K-562 leukemia"}, "MDA-MB-231 breast": {"system": "MDA-MB-231 breast"}, "MDA-N": {"system": "MDA-N"}, "MOLT-4 leukemia": {"system": "MOLT-4 leukemia"}, "NCI-H23 lung": {"system": "NCI-H23 lung"}, "NCI-H460 lung": {"system": "NCI-H460 lung"}, "NCI-H522 lung": {"system": "NCI-H522 lung"}, "OVCAR-8 ovarian": {"system": "OVCAR-8 ovarian"}, "SF-268 CNS": {"system": "SF-268 CNS"}, "SN12C renal": {"system": "SN12C renal"}, "SNB-19 CNS": {"system": "SNB-19 CNS"}}, "note": "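Step 1: Grow cells in 96-well plates. Step 2: Expose to compound for 48 hours at 5 concentrations. Step 3: Interpolate endpoints linearly; if unreached, use highest concentration. GI50 marks 50% less growth. TGI: total growth inhibition.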"}
{"smiles": "Cc1cc(Nc2ccc(Cl)cc2)nc(NCCCNc2ccnc3cc(Cl)ccc23)n1", "values": [{"measurement": "GI50", "setting": "PC-3 prostate", "result": 1.65, "unit": "µM"}, {"measurement": "TGI", "setting": "PC-3 prostate", "result": 3.18, "unit": "µM"}, {"measurement": "GI50", "setting": "RXF 393 renal", "result": 1.52, "unit": "µM"}, {"measurement": "TGI", "setting": "RXF 393 renal", "result": 3.08, "unit": "µM"}, {"measurement": "GI50", "setting": "UO-31 renal", "result": 1.49, "unit": "µM"}, {"measurement": "TGI", "setting": "UO-31 renal", "result": 2.96, "unit": "µM"}]}
{"smiles": "NC(Cc1ccccc1CP(=O)(O)O)C(=O)O", "note": "(centres undefined)", "values": [{"measurement": "TGI", "setting": "A549 NSCLC", "result": "> 100", "unit": "µM"}, {"measurement": "TGI", "setting": "BT-549 breast", "result": "> 100", "unit": "µM"}, {"measurement": "TGI", "setting": "CCRF-CEM leukemia", "result": "> 100", "unit": "µM"}, {"measurement": "TGI", "setting": "K-562 leukemia", "result": "> 100", "unit": "µM"}, {"measurement": "TGI", "setting": "MDA-MB-231 breast", "result": "> 100", "unit": "µM"}, {"measurement": "TGI", "setting": "MDA-N", "result": "> 100", "unit": "µM"}, {"measurement": "TGI", "setting": "MOLT-4 leukemia", "result": "> 100", "unit": "µM"}, {"measurement": "TGI", "setting": "NCI-H23 lung", "result": "> 100", "unit": "µM"}, {"measurement": "TGI", "setting": "NCI-H460 lung", "result": "> 100", "unit": "µM"}, {"measurement": "TGI", "setting": "NCI-H522 lung", "result": "> 100", "unit": "µM"}, {"measurement": "TGI", "setting": "OVCAR-8 ovarian", "result": "> 100", "unit": "µM"}, {"measurement": "TGI", "setting": "PC-3 prostate", "result": "> 100", "unit": "µM"}, {"measurement": "TGI", "setting": "RXF 393 renal", "result": "> 100", "unit": "µM"}, {"measurement": "TGI", "setting": "SF-268 CNS", "result": "> 100", "unit": "µM"}, {"measurement": "TGI", "setting": "SN12C renal", "result": "> 100", "unit": "µM"}, {"measurement": "TGI", "setting": "SNB-19 CNS", "result": "> 100", "unit": "µM"}, {"measurement": "TGI", "setting": "UO-31 renal", "result": "> 100", "unit": "µM"}]}
{"smiles": "C/C(=N\\NC(=S)N1CCOCC1)c1nc2ncccc2[nH]1", "values": [{"measurement": "TGI", "setting": "A549 NSCLC", "result": "> 100", "unit": "µM"}, {"measurement": "TGI", "setting": "BT-549 breast", "result": "> 100", "unit": "µM"}, {"measurement": "TGI", "setting": "CCRF-CEM leukemia", "result": "> 100", "unit": "µM"}, {"measurement": "TGI", "setting": "K-562 leukemia", "result": "> 100", "unit": "µM"}, {"measurement": "TGI", "setting": "MDA-MB-231 breast", "result": "> 100", "unit": "µM"}, {"measurement": "TGI", "setting": "MDA-N", "result": "> 100", "unit": "µM"}, {"measurement": "TGI", "setting": "MOLT-4 leukemia", "result": "> 100", "unit": "µM"}, {"measurement": "TGI", "setting": "NCI-H23 lung", "result": "> 100", "unit": "µM"}, {"measurement": "TGI", "setting": "NCI-H460 lung", "result": "> 100", "unit": "µM"}, {"measurement": "TGI", "setting": "NCI-H522 lung", "result": 59.3, "unit": "µM"}, {"measurement": "TGI", "setting": "OVCAR-8 ovarian", "result": 80.2, "unit": "µM"}, {"measurement": "TGI", "setting": "PC-3 prostate", "result": "> 100", "unit": "µM"}, {"measurement": "TGI", "setting": "SF-268 CNS", "result": "> 100", "unit": "µM"}, {"measurement": "TGI", "setting": "SN12C renal", "result": "> 100", "unit": "µM"}, {"measurement": "TGI", "setting": "SNB-19 CNS", "result": 84.6, "unit": "µM"}, {"measurement": "TGI", "setting": "UO-31 renal", "result": 96.2, "unit": "µM"}]}
